From PubChem BioAssay (NCI)
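48-hour exposure; five concentrations; linearly interpolated endpoints. TGI denotes the concentration required for complete inhibition of growth.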

How the values were obtained:
Test in all cases: growth of human tumour cells (NCI), 48 h
[1] = test system: KM12 colon
[2] = test system: NCI-H460 lung
[3] = test system: A498 renal
[4] = test system: MALME-3M melanoma
[5] = test system: CCRF-CEM leukemia
[6] = test system: SF-295 CNS
[7] = test system: SK-MEL-5 melanoma
[8] = test system: SK-OV-3 ovarian
[9] = test system: SF-268 CNS
[10] = test system: SR leukemia
[11] = test system: IGROV1 ovarian

Row | Compound | TGI [1] [µM] | TGI [2] [µM] | TGI [3] [µM] | TGI [4] [µM] | TGI [5] [µM] | TGI [6] [µM] | TGI [7] [µM] | TGI [8] [µM] | TGI [9] [µM] | TGI [10] [µM] | TGI [11] [µM]
1 | O=c1c2c3c(sc2nc2n1N=CN(c1ccc(Cl)cc1)C2)CCCC3 | > 100 | > 100 | > 100 | 97.9 | > 100 | > 100 | > 100 | > 100 | > 100 | 51.1 | > 100
2 | C[C@@H]1OC2(O)[C@@H]3CCCN3C(=O)N(Cc3ccccc3)N2C1=O (some centres undefined) | > 100 | > 100 | > 100 | > 100 | > 100 | > 100 | > 100 | > 100 | > 100 | > 100 | > 100
3 | C/C(=N/NC(=S)N1CCCC1)c1cccc(/C(C)=N\NC(=S)N2CCCC2)n1 | 4.46 | 3.63 | 2.59 | 4.89 | 3.01 | 2.24 | 2.69 | 4.65 | 14.7 | 7.58 | 37.1
4 | CO[C@H](c1ccccc1)[C@H](O)[C@](O)(c1ccccc1)P(=O)(OC)OC | > 100 | > 100 | > 100 | > 100 | > 100 | > 100 | > 100 | > 100 | > 100 | > 100 | > 100
5 | COC(=O)C(Cc1c[nH]c2ccccc12)NP(=O)(O)OCC1OC(n2cc(F)c(=O)[nH]c2=O)CC1O (centres undefined) | > 100 | > 100 | > 100 | > 100 | > 59.1 | > 100 | > 100 | > 100 | > 100 | > 51.9 | > 100
6 | O=C(CCCN1CC=C(n2c(=O)[nH]c3ccccc32)CC1)c1cccs1 | > 100 | > 100 | > 100 | > 100 | > 100 | > 100 | > 100 | > 100 | > 100 | > 100 | > 100
7 | COc1ccccc1N1C(=O)/C(=C\c2cc(OC)c(OC)c(OC)c2)S(=O)(=O)C1c1ccccc1 (centres undefined) | > 100 | > 100 | > 100 | 96.3 | 61.2 | > 100 | > 100 | 76.5 | > 100 | > 100 | 
8 | O=c1[nH]c(=O)n(C2CC(O)C(CO)O2)c2nc3ccc4ccccc4c3nc12 (centres undefined) | > 100 | > 100 | > 100 | > 100 | > 100 | > 100 | > 100 | > 100 | > 100 | > 100 | > 100
9 | COc1ccc(N2C(=O)/C(=C\c3cc(OC)c(OC)c(OC)c3)S(=O)(=O)C2c2ccccc2)cc1 (centres undefined) | > 100 | > 100 | > 100 | > 100 | > 100 | > 100 | > 100 | > 100 | > 100 | > 100 | 
10 | CC(C)(C)C(=O)Nc1cccc(-c2ccc[nH]2)n1 | > 100 | > 100 | > 100 | > 100 | > 100 | > 100 | > 100 | > 100 | > 100 | > 100 | > 100
11 | COc1ccc(C(CC(=O)c2ccccc2)C(=O)c2ccc3c(c2)OCO3)cc1 (centres undefined) | > 100 | > 100 | > 100 | > 100 | > 100 | > 100 | > 100 | > 100 | > 100 | > 100 | > 100
12 | Cc1n[nH]c(=O)n1/N=C/c1cccnc1 | > 100 | > 100 | > 100 | > 100 | > 100 | > 100 | > 100 | > 100 | > 100 | > 100 | > 100
13 | C/C(=C/CNc1ncnc2c1ncn2CCC#N)CO | > 100 | > 100 | > 100 | > 100 | > 100 | > 100 | > 100 | > 100 | > 100 | > 100 | > 100
14 | CC(=C(C(=O)O)C(=O)O)c1cc(-c2cccs2)cc(-c2ccc(Cl)cc2)c1O | 24.2 | 37.3 | 30.8 | 41 | > 76.5 | 46.5 | > 52.8 | > 82.5 | 54.9 | 37.1 | 29.3
15 | CCn1c(SCC(=O)NNC(=S)Nc2ccc(F)cc2)nc2ccccc2c1=O | > 100 |  | > 100 | > 100 | > 100 | > 100 | > 100 | > 100 | > 100 | > 100 | > 100
16 | COc1ccc(NC(C)=O)cc1N1C(=O)/C(=C\c2cc(OC)c(OC)c(OC)c2)S(=O)(=O)C1c1ccccc1 (centres undefined) | > 100 | > 100 | > 100 | > 100 | > 100 | > 100 | > 100 | > 100 |  | > 100 | > 100
17 | N#CC1=C(N2CCOCC2)CCC1 | > 100 |  | > 100 | > 100 | > 100 | > 100 | > 100 | > 100 | > 100 | > 100 | > 100
18 | CC1=[N+]([O-])C(C)(C)N(O)C1(C)C | > 100 | > 100 | > 100 | > 100 | > 100 | > 100 | > 100 | > 100 | > 100 | > 100 | > 100
19 | CCOC(=O)Oc1cc2c(ccn2C)c2c1c1ccccc1n2C(=O)OCC | > 100 | > 100 | > 100 | > 100 | > 100 | > 100 | > 100 | > 100 | > 100 | > 100 | > 100
